Reference: PubChem BioAssay (NCI)
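Values below derive from 48-hour exposures of cells grown in 96-well plates, with endpoints linearly interpolated between the two concentrations bracketing the appropriate inhibition level. TGI marks complete inhibition of growth.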

Legend:
Experiment in all cases: growth of human tumour cells (NCI), 48 h
HCT-116 colon = test system: HCT-116 colon
NCI-H522 lung = test system: NCI-H522 lung
LOX IMVI melanoma = test system: LOX IMVI melanoma
BT-549 breast = test system: BT-549 breast
NCI-H23 lung = test system: NCI-H23 lung
SNB-19 CNS = test system: SNB-19 CNS
UO-31 renal = test system: UO-31 renal
OVCAR-4 ovarian = test system: OVCAR-4 ovarian
HCC-2998 colon = test system: HCC-2998 colon
M19-MEL melanoma = test system: M19-MEL melanoma
DMS 273 small cell lung = test system: DMS 273 small cell lung

For CC1(C)CC(=O)C2=C(C1)N(c1ccccc1)C1(O)C=CC(=O)C3=C(O)c4ccccc4C(=O)C321 (stereo not given), the TGI (HCT-116 colon) was > 100 µM, the TGI (NCI-H522 lung) was 45.8 µM and the TGI (LOX IMVI melanoma) was 56.3 µM. It also gave a TGI (BT-549 breast) of 67.9 µM, a TGI (NCI-H23 lung) of 84 µM and a TGI (SNB-19 CNS) of 54.5 µM. For the same compound, the TGI (UO-31 renal) was 47 µM, the TGI (OVCAR-4 ovarian) was 43.9 µM and the TGI (HCC-2998 colon) was 78.2 µM.

CCOC(=O)c1ccc2c(=O)n3c(C(=O)OCC)ccc3c(=O)n12 was tested, and the TGI (HCT-116 colon) was > 100 µM, the TGI (NCI-H522 lung) was > 100 µM and the TGI (LOX IMVI melanoma) was > 100 µM. The TGI (BT-549 breast) was > 100 µM, the TGI (NCI-H23 lung) was > 100 µM and the TGI (SNB-19 CNS) was > 100 µM. For the same compound, the TGI (UO-31 renal) was > 100 µM, the TGI (OVCAR-4 ovarian) was > 100 µM and the TGI (HCC-2998 colon) was > 100 µM.

In the case of COC(=O)C1(Cc2ccc3c(c2)CCC3)Cc2cc3c(cc2C1=O)CCC3 (stereo not given), the TGI (HCT-116 colon) is reported as > 46.4 µM, the TGI (NCI-H522 lung) is reported as > 31.6 µM and the TGI (LOX IMVI melanoma) is reported as > 46.4 µM. For the same compound, the TGI (BT-549 breast) was 39.2 µM, the TGI (NCI-H23 lung) was > 46.4 µM and the TGI (SNB-19 CNS) was > 46.4 µM. The TGI (UO-31 renal) was > 46.4 µM, the TGI (OVCAR-4 ovarian) was > 46.4 µM and the TGI (HCC-2998 colon) was 38.1 µM.

O=C(O)[C@H]1NC[C@@H]2ON=C(Br)[C@@H]21 was tested, and the TGI (HCT-116 colon) was > 100 µM, the TGI (NCI-H522 lung) was > 100 µM and the TGI (LOX IMVI melanoma) was > 100 µM. For the same compound, the TGI (BT-549 breast) was > 100 µM, the TGI (NCI-H23 lung) was > 100 µM and the TGI (SNB-19 CNS) was > 100 µM. The TGI (UO-31 renal) was > 100 µM, the TGI (OVCAR-4 ovarian) was > 100 µM and the TGI (HCC-2998 colon) was > 100 µM.

For CCOC(=O)CC(=Nc1cc(C)on1)N(CC)CC, the TGI (HCT-116 colon) was > 100 µM, the TGI (M19-MEL melanoma) was > 100 µM and the TGI (NCI-H522 lung) was > 100 µM. For the same compound, the TGI (DMS 273 small cell lung) was > 100 µM, the TGI (NCI-H23 lung) was > 100 µM and the TGI (SNB-19 CNS) was > 100 µM. For the same compound, the TGI (UO-31 renal) was > 100 µM.

For O=C(NN1C(=O)C(Cl)C1c1ccc([N+](=O)[O-])cc1)c1ccccc1O (stereo not given), the TGI (HCT-116 colon) was > 100 µM, the TGI (M19-MEL melanoma) was > 100 µM and the TGI (NCI-H522 lung) was > 100 µM. The TGI (NCI-H23 lung) was > 100 µM, the TGI (SNB-19 CNS) was > 100 µM and the TGI (UO-31 renal) was > 100 µM. The TGI (OVCAR-4 ovarian) was > 100 µM.

In the case of Cc1ccc(C(=O)NC(C)C)cc1N=NN(C)C, the TGI (HCT-116 colon) is reported as > 100 µM, the TGI (M19-MEL melanoma) is reported as > 100 µM and the TGI (NCI-H522 lung) is reported as > 100 µM. For the same compound, the TGI (LOX IMVI melanoma) was > 100 µM, the TGI (DMS 273 small cell lung) was > 100 µM and the TGI (NCI-H23 lung) was > 100 µM. The TGI (SNB-19 CNS) was > 100 µM, the TGI (UO-31 renal) was > 100 µM and the TGI (OVCAR-4 ovarian) was > 100 µM. The TGI (HCC-2998 colon) was > 100 µM.

With COc1ccc2c(c1)Cc1c-2[nH]c2cc3c(cc2c1=O)OCO3 the TGI (HCT-116 colon) was 23.2 µM, the TGI (M19-MEL melanoma) was 34.3 µM and the TGI (NCI-H522 lung) was 35.1 µM. It also gave a TGI (LOX IMVI melanoma) of 34.2 µM, a TGI (DMS 273 small cell lung) of 24.7 µM and a TGI (NCI-H23 lung) of 48.2 µM. The TGI (SNB-19 CNS) was > 100 µM, the TGI (UO-31 renal) was 89 µM and the TGI (OVCAR-4 ovarian) was > 100 µM. For the same compound, the TGI (HCC-2998 colon) was 51 µM.

For COC(=O)C1=C2Nc3ccccc3C23CCN2C(O)C4(CC5CC67CCOC6CCN6CCC8(c9cccc(OC)c9N(C4)C58O)C67)C4OCCC4(C1)C23 (stereo not given), the TGI (HCT-116 colon) was > 100 µM, the TGI (NCI-H522 lung) was > 100 µM and the TGI (LOX IMVI melanoma) was > 100 µM. For the same compound, the TGI (BT-549 breast) was > 100 µM, the TGI (NCI-H23 lung) was > 100 µM and the TGI (SNB-19 CNS) was > 100 µM. For the same compound, the TGI (UO-31 renal) was > 100 µM, the TGI (OVCAR-4 ovarian) was > 100 µM and the TGI (HCC-2998 colon) was > 100 µM.

With Cc1cc2nc(NS(=O)(=O)c3cc(C)c(Cl)cc3S)[nH]c2cc1C the TGI (HCT-116 colon) was > 100 µM, the TGI (NCI-H522 lung) was > 100 µM and the TGI (LOX IMVI melanoma) was > 100 µM. The TGI (BT-549 breast) was > 100 µM, the TGI (NCI-H23 lung) was > 100 µM and the TGI (SNB-19 CNS) was > 100 µM. The TGI (UO-31 renal) was > 100 µM, the TGI (OVCAR-4 ovarian) was > 100 µM and the TGI (HCC-2998 colon) was > 100 µM.

For Nc1nc(SCc2ccccc2[N+](=O)[O-])c2[nH]cnc2n1, the TGI (HCT-116 colon) was > 100 µM, the TGI (M19-MEL melanoma) was > 100 µM and the TGI (NCI-H522 lung) was > 67.5 µM. For the same compound, the TGI (LOX IMVI melanoma) was > 100 µM, the TGI (DMS 273 small cell lung) was > 100 µM and the TGI (BT-549 breast) was > 100 µM. For the same compound, the TGI (NCI-H23 lung) was > 100 µM, the TGI (SNB-19 CNS) was > 100 µM and the TGI (UO-31 renal) was > 100 µM. For the same compound, the TGI (OVCAR-4 ovarian) was > 100 µM and the TGI (HCC-2998 colon) was 97.4 µM.

In the case of Cn1c2cc(Cl)ccc2c2ccc3c(c21)C(=O)C=CC3=O, the TGI (HCT-116 colon) is reported as > 53.7 µM, the TGI (NCI-H522 lung) is reported as 22.9 µM and the TGI (LOX IMVI melanoma) is reported as > 100 µM. The TGI (BT-549 breast) was > 63.8 µM, the TGI (NCI-H23 lung) was 54.4 µM and the TGI (SNB-19 CNS) was > 100 µM. The TGI (UO-31 renal) was > 100 µM, the TGI (OVCAR-4 ovarian) was 52.3 µM and the TGI (HCC-2998 colon) was > 100 µM.

With COC(=O)C(Cc1ccccc1)NC(=O)C(CCCN=C(N)N)NC(=O)OCc1ccccc1 (stereo not given) the TGI (HCT-116 colon) was > 100 µM, the TGI (NCI-H522 lung) was > 100 µM and the TGI (LOX IMVI melanoma) was > 100 µM. The TGI (BT-549 breast) was > 100 µM, the TGI (NCI-H23 lung) was > 100 µM and the TGI (SNB-19 CNS) was > 100 µM. For the same compound, the TGI (UO-31 renal) was > 100 µM, the TGI (OVCAR-4 ovarian) was > 100 µM and the TGI (HCC-2998 colon) was > 100 µM.

For C/C(=N\Nc1ncnc2ccccc12)c1ccccn1, the TGI (HCT-116 colon) was 13.9 µM, the TGI (NCI-H522 lung) was 1.53 µM and the TGI (LOX IMVI melanoma) was 5.45 µM. The TGI (BT-549 breast) was 35.5 µM, the TGI (NCI-H23 lung) was 16.4 µM and the TGI (SNB-19 CNS) was 59.1 µM. The TGI (UO-31 renal) was 1.75 µM, the TGI (OVCAR-4 ovarian) was > 51.5 µM and the TGI (HCC-2998 colon) was 36 µM.

For COc1cc(C2c3cc4c(cc3OC(N3CCOCC3)C2C)OCO4)cc(OC)c1OC (stereo not given), the TGI (HCT-116 colon) was 12.7 µM, the TGI (NCI-H522 lung) was 9.61 µM and the TGI (LOX IMVI melanoma) was > 53.3 µM. The TGI (BT-549 breast) was 65.8 µM, the TGI (NCI-H23 lung) was 18.2 µM and the TGI (SNB-19 CNS) was 18.7 µM. The TGI (UO-31 renal) was 55.2 µM, the TGI (OVCAR-4 ovarian) was > 100 µM and the TGI (HCC-2998 colon) was 4.35 µM.
